# Assay results as given in publication PMC9367672, “In vitro differences in toddalolactone metabolism in various species and its effect on cytochrome P450 expression” (Pharmaceutical Biology, 2022).
# Assays:
# [1] = test system: DLMs; assay: Prediction of in vivo hepatic clearance in dogs from DLM kinetics; format: in vitro ADME, dog
# Protocol: The in vivo hepatic clearances in oxidative metabolism and glucuronidation of toddalolactone were calculated using Equations (4)–(6) (Li et al. [2008]): (4) CLint in vitro=∑i=1nVmax(Mi)/Km(Mi) (5) CLint in vivo=CLint in vitro⋅SF (6) CLH=QH⋅fu⋅CLint in vivo/QH+fu⋅CLint in vivo where SF is the milligrams of microsomal protein per gram of liver multiplied by the grams of liver weight; CLH is hepatic clearance; fu is the unbound fraction in the blood (the value of fu was set to 1 due to the absence of available data for toddalolactone); QH is the blood flow in the liver; and Mi is the metabolite of toddalolacone. The physiological parameters to calculate intrinsic clearance were as follows. The liver weight of dogs, rats and humans were 32, 40 and 25.7 g/kg body weight, respectively; the content of microsomal protein was 77.9, 44.8 and 48.8 mg/g of liver; and the blood flow in the liver was 30.9, 55.2 and 20.7 mL/(min ⋅ kg), respectively (Naritomi et al. [2001]).
# [2] = Metabolic stability assessment in monkey liver microsomes; format: in vitro ADME; settings: pH 7.4, MLMs, toddalolactone 20 μM, 0-90 min
# Protocol: (§1) The CYP reaction system (200 μL) consisted of 0.1 M potassium phosphate buffer (pH 7.4), an NADPH-generating system (1 mM NADPH, 10 mM G-6-P, 1 unit/mL G-6-PD, 4 mM MgCl2), and liver microsomes or recombinant human microsomes (supersomes). Each of the in vitro enzymatic assays using liver microsomes was linear with respect to incubation time and amount of protein. After a pre-incubation at 37 °C for 3 min, the reactions were initiated by adding NADP^+. After incubating for 60 min, the reactions were quenched by adding 200 μL of ice-cold acetonitrile. Samples were centrifuged at 18,000 g for 15 min at 4 °C and 10 μL of supernatant was analyzed using an HPLC system. […]
# (§2) In the UGT reaction system, liver microsomes were incubated in 200 μL of the reaction system containing 4 mM UDPGA, 5 mM MgCl2, 20 µg/mL alamethicin, and 50 mM Tris-HCl buffer (pH 7.4). […] After centrifugation at 18,000 g for 15 min, 10 μL of the supernatant was analyzed by HPLC.
# (§3) Toddalolactone (20 μM) was incubated with different liver microsomes, including HLMs, DLMs, PLMs, MLMs, RAMs, RLMs or MIMs in oxidative metabolism and glucuronidation reaction systems. […] The mixtures were centrifuged at 18,000 g for 15 min at 4 °C and then 10 μL of the supernatant was analyzed by HPLC. […]
# (§4) The peak areas of toddalolactone and its metabolites were detected using a HPLC system (Shimadzu, Kyoto, Japan). […]
# [3] = biological target: T1, CYP1A1 (Homo sapiens, UniProt P04798); assay: Reaction phenotyping with recombinant human CYP1A1; format: in vitro ADME; set-up: purchased Corning Life Sciences (Corning, MA); settings: CYP1A1 15 nM, 37 °C, 60 min; P4 main metabolite
# T1 sequence (P04798 1-512): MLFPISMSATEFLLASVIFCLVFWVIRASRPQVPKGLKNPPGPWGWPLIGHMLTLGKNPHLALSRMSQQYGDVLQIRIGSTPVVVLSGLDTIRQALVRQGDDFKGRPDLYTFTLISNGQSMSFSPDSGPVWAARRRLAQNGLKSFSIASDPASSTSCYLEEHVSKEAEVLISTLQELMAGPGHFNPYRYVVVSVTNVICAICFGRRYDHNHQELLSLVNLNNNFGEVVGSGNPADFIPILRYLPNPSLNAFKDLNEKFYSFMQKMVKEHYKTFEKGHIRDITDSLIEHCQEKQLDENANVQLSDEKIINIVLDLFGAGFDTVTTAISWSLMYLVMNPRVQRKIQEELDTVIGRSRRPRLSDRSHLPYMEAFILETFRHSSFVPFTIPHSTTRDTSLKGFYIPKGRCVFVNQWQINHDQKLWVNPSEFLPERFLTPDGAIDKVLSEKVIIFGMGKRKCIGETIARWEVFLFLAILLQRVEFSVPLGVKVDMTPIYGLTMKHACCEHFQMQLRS
# Protocol: The CYP reaction system (200 μL) consisted of 0.1 M potassium phosphate buffer (pH 7.4), an NADPH-generating system (1 mM NADPH, 10 mM G-6-P, 1 unit/mL G-6-PD, 4 mM MgCl2), and liver microsomes or recombinant human microsomes (supersomes). Each of the in vitro enzymatic assays using liver microsomes was linear with respect to incubation time and amount of protein. After a pre-incubation at 37 °C for 3 min, the reactions were initiated by adding NADP^+. After incubating for 60 min, the reactions were quenched by adding 200 μL of ice-cold acetonitrile. Samples were centrifuged at 18,000 g for 15 min at 4 °C and 10 μL of supernatant was analyzed using an HPLC system. NADPH or CYP enzyme sources were not used in the control group to ensure that the metabolic reactions were CYP- and NADPH-dependent. All incubation assays were completed in triplicate. The data are presented as mean ± standard deviation (SD).
# Thirteen cDNA-expressed human CYP isoforms (CYP1A1, CYP1A2, CYP2A6, CYP2B6, CYP2C8, CYP3A4, CYP2C19, CYP3A5, CYP1B1, CYP2C9, CYP2D6, CYP2E1 and CYP4F2) were used to identify the isoform(s) involved in the biotransformation of toddalolactone. Toddalolactone (10 μM) was incubated with each recombinant CYP (15 nM) for 60 min at 37 °C and metabolites were identified by HPLC.
# [4] = Metabolic stability assessment in rat liver microsomes; format: in vitro ADME; settings: pH 7.4, RLMs, toddalolactone 20 μM, 0-90 min
# Protocol: as §1, §2, §3, §4
# [5] = CYP incubation system, read-out: half-life value (T1/2)
# [6] = UGT incubation system, read-out: T1/2 value
structure (smiles),measurement,setting,value
COc1cc2oc(=O)ccc2c(OC)c1C[C@@H](O)C(C)(C)O [toddalolactone],CLH versus hepatic blood flow (QH),[1]; DLMs,5.41%
same,clearance class according to predicted CLH,[1]; dogs,low-clearance (low-clearance drugs (<30% liver blood flow))
same,in vivo hepatic clearance (CLH),"[1]; dogs, predicted from kinetic parameters of P1–P6, fu set to 1",0.47 mL/(min/kg body weight)
same,half-life at 20 μM,[2]; [5],4.08 h
same,half-life at 20 μM,[2]; [6],1.1 h
same,catalysis of toddalolactone metabolism by rhCYP isoform,[3],predominantly catalyzed
same,half-life at 20 μM,[4]; [5],6.37 ± 0.283 h
same,half-life at 20 μM,[4]; [6],2.15 ± 0.197 h
